Measurements as given in ChEMBL document CHEMBL4800729 (2021).

Assays:
[1] = molecular target: 5'-AMP-activated protein kinase catalytic subunit alpha-2 (Homo sapiens) (UniProt P54646); assay: AMPKalpha2(h) Millipore kinase panel; settings: Compound concentration 1.0 uM
[2] = molecular target: Hepatocyte growth factor receptor (Homo sapiens) (UniProt P08581); assay: Met(h) Millipore kinase panel; settings: Compound concentration 1.0 uM
[3] = molecular target: Serine/threonine-protein kinase PAK 5 (Homo sapiens) (UniProt Q9P286); assay: PAK5(h) Millipore kinase panel; settings: Compound concentration 1.0 uM
[4] = molecular target: Beta-3 adrenergic receptor (Homo sapiens) (UniProt P13945); settings: Compound concentration 10.0 uM
[5] = molecular target: SRSF protein kinase 3 (Homo sapiens) (UniProt Q9UPE1); assay: MSSK1(h) Millipore kinase panel; settings: Compound concentration 1.0 uM
[6] = molecular target: Endothelin receptor type B (Homo sapiens) (UniProt P24530); settings: Compound concentration 10.0 uM
[7] = molecular target: Beta-1 adrenergic receptor (Homo sapiens) (UniProt P08588); settings: Compound concentration 10.0 uM
[8] = molecular target: Death-associated protein kinase 2 (Homo sapiens) (UniProt Q9UIK4); assay: DAPK2(h) Millipore kinase panel; settings: Compound concentration 1.0 uM
[9] = molecular target: Beta-adrenergic receptor kinase 1 (Homo sapiens) (UniProt P25098); assay: GRK2(h) Millipore kinase panel; settings: Compound concentration 1.0 uM
[10] = molecular target: Adenosine receptor A3 (Homo sapiens) (UniProt P0DMS8); settings: Compound concentration 10.0 uM
[11] = molecular target: Dual specificity mitogen-activated protein kinase kinase 1 (Homo sapiens) (UniProt Q02750); assay: MEK1(h) Millipore kinase panel; settings: Compound concentration 1.0 uM
[12] = molecular target: Phosphatidylinositol 4-phosphate 5-kinase type-1 alpha (Homo sapiens) (UniProt Q99755); assay: PIP5K1a(h) Millipore kinase panel; settings: Compound concentration 1.0 uM
[13] = molecular target: BMP-2-inducible protein kinase (Homo sapiens) (UniProt Q9NSY1); assay: BIKe(h) Millipore kinase panel; settings: Compound concentration 1.0 uM
[14] = molecular target: T1, 5-hydroxytryptamine receptor 1A (Homo sapiens) (UniProt P08908); settings: Compound concentration 10.0 uM
T1 sequence (whole entry): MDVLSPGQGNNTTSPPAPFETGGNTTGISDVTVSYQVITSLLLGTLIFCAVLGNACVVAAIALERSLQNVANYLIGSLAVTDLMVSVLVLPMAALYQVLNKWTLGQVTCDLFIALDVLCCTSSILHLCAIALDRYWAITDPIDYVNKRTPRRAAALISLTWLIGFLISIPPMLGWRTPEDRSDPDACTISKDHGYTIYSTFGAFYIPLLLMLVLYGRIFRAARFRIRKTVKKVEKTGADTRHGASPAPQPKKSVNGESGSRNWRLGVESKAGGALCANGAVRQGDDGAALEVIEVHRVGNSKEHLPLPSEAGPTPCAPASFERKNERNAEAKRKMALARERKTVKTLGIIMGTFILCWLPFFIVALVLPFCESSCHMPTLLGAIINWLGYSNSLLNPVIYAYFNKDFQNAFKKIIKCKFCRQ

[15] = molecular target: D(2) dopamine receptor (Homo sapiens) (UniProt P14416); settings: Compound concentration 10.0 uM
[16] = molecular target: Insulin-like growth factor 1 receptor (Homo sapiens) (UniProt P08069); assay: IGF-1R(h), activated Millipore kinase panel; settings: Compound concentration 1.0 uM
[17] = molecular target: RAF proto-oncogene serine/threonine-protein kinase (Homo sapiens) (UniProt P04049); assay: c-RAF(h) Millipore kinase panel; settings: Compound concentration 1.0 uM
[18] = molecular target: Ribosomal protein S6 kinase alpha-2 (Homo sapiens) (UniProt Q15349); assay: Rsk3(h) Millipore kinase panel; settings: Compound concentration 1.0 uM
[19] = molecular target: Ephrin type-A receptor 3 (Homo sapiens) (UniProt P29320); assay: EphA3(h) Millipore kinase panel; settings: Compound concentration 1.0 uM
[20] = molecular target: PI3-kinase p110-alpha/p85-alpha (Homo sapiens) (UniProt P27986+P42336); assay: PI3 Kinase (p110a/p85a)(h) Millipore kinase panel; assay type: protein-complex assay; settings: Compound concentration 1.0 uM
[21] = molecular target: Tyrosine-protein kinase Srms (Homo sapiens) (UniProt Q9H3Y6); assay: SRMS(h) Millipore kinase panel; settings: Compound concentration 1.0 uM
[22] = molecular target: Mitogen-activated protein kinase kinase kinase 21 (Homo sapiens) (UniProt Q5TCX8); assay: MLK4(h) Millipore kinase panel; settings: Compound concentration 1.0 uM
[23] = molecular target: Tyrosine-protein kinase Lck (Homo sapiens) (UniProt P06239); assay: Lck(h) Millipore kinase panel; settings: Compound concentration 1.0 uM
[24] = molecular target: Muscle, skeletal receptor tyrosine-protein kinase (Homo sapiens) (UniProt O15146); assay: MuSK(h) Millipore kinase panel; settings: Compound concentration 1.0 uM
[25] = molecular target: Myosin light chain kinase (Homo sapiens) (UniProt Q32MK0); assay: MLCK(h) Millipore kinase panel; settings: Compound concentration 1.0 uM
[26] = molecular target: Receptor-interacting serine/threonine-protein kinase 1 (Homo sapiens) (UniProt Q13546); assay: RIPK1(h) Millipore kinase panel; settings: Compound concentration 1.0 uM
[27] = molecular target: PI3K p110 beta/p85 alpha (Homo sapiens) (UniProt P27986+P42338); assay: PI3 Kinase (p110b/p85a)(h) Millipore kinase panel; assay type: protein-complex assay; settings: Compound concentration 1.0 uM
[28] = molecular target: Serine/threonine-protein kinase A-Raf (Homo sapiens) (UniProt P10398); assay: A_Raf(h) Millipore kinase panel; settings: Compound concentration 1.0 uM
[29] = molecular target: Serine/threonine-protein kinase Nek9 (Homo sapiens) (UniProt Q8TD19); assay: NEK9(h) Millipore kinase panel; settings: Compound concentration 1.0 uM
[30] = molecular target: Mitogen-activated protein kinase kinase kinase 20 (Homo sapiens) (UniProt Q9NYL2); assay: ZAK(h) Millipore kinase panel; settings: Compound concentration 1.0 uM
[31] = molecular target: Mitogen-activated protein kinase kinase kinase 11 (Homo sapiens) (UniProt Q16584); assay: MLK3(h) Millipore kinase panel; settings: Compound concentration 1.0 uM
[32] = molecular target: Myosin light chain kinase 2, skeletal/cardiac muscle (Homo sapiens) (UniProt Q9H1R3); assay: MYLK2(h) Millipore kinase panel; settings: Compound concentration 1.0 uM
[33] = molecular target: Tyrosine-protein kinase ITK/TSK (Homo sapiens) (UniProt Q08881); assay: Itk(h) Millipore kinase panel; settings: Compound concentration 1.0 uM
[34] = molecular target: Tyrosine-protein kinase Mer (Homo sapiens) (UniProt Q12866); assay: Mer(h) Millipore kinase panel; settings: Compound concentration 1.0 uM
[35] = molecular target: Casein kinase I isoform alpha (Homo sapiens) (UniProt P48729); assay: CK1alpha(h) Millipore kinase panel; settings: Compound concentration 1.0 uM
[36] = molecular target: Prostaglandin G/H synthase 1 (Homo sapiens) (UniProt P23219); assay: Cyclooxygenase COX-1 Eurofins-Panlabs enzyme assay; design: substrate with concentration; settings: Compound concentration 10.0 uM
[37] = molecular target: cAMP-dependent protein kinase catalytic subunit alpha (Homo sapiens) (UniProt P17612); assay: PKA(h) Millipore kinase panel; settings: Compound concentration 1.0 uM
[38] = molecular target: Serine/threonine-protein kinase TAO2 (Homo sapiens) (UniProt Q9UL54); assay: TAO2(h) Millipore kinase panel; settings: Compound concentration 1.0 uM
[39] = molecular target: Phosphatidylinositol 3-kinase C2 domain-containing subunit gamma (Homo sapiens) (UniProt O75747); assay: PI3KC2g(h) Millipore kinase panel; settings: Compound concentration 1.0 uM
[40] = molecular target: Ephrin type-A receptor 2 (Homo sapiens) (UniProt P29317); assay: EphA2(h) Millipore kinase panel; settings: Compound concentration 1.0 uM
[41] = molecular target: Dual specificity protein kinase CLK2 (Homo sapiens) (UniProt P49760); assay: CLK2(h) Millipore kinase panel; settings: Compound concentration 1.0 uM
[42] = molecular target: Histamine H1 receptor (Homo sapiens) (UniProt P35367); settings: Compound concentration 10.0 uM
[43] = molecular target: Phosphatidylinositol 5-phosphate 4-kinase type-2 alpha (Homo sapiens) (UniProt P48426); settings: Compound concentration 1.0 uM

Measured: inhibition

Histamine H1 receptor (Homo sapiens), sequence (P35367 whole entry): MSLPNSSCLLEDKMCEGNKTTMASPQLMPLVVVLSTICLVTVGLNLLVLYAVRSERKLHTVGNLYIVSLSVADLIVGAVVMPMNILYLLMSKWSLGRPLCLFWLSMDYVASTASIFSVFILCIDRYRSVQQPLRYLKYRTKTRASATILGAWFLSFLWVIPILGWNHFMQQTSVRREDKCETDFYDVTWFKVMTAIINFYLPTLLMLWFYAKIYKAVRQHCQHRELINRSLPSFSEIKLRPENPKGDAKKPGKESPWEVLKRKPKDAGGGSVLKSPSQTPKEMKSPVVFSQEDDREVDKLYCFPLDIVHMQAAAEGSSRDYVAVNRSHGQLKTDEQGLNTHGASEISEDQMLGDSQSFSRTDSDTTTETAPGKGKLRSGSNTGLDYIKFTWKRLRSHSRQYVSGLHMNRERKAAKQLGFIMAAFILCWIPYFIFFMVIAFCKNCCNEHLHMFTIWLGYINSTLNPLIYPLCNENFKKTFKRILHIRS
SRSF protein kinase 3 (Homo sapiens), sequence (Q9UPE1 whole entry): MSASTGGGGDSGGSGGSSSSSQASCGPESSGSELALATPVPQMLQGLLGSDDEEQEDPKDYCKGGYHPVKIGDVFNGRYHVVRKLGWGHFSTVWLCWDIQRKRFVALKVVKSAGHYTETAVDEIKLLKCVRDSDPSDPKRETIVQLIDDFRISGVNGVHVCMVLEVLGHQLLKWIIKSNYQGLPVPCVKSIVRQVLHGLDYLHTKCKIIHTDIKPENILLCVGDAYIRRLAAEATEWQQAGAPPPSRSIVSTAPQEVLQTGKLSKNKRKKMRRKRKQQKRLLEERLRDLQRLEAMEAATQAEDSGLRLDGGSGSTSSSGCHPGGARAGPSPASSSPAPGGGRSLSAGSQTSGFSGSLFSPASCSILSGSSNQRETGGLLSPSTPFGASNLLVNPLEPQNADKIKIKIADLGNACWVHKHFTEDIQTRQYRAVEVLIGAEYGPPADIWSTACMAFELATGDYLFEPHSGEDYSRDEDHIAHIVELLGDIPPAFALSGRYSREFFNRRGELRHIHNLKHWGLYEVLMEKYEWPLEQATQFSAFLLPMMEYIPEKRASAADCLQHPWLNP
Beta-1 adrenergic receptor (Homo sapiens), sequence (P08588 whole entry, looked up): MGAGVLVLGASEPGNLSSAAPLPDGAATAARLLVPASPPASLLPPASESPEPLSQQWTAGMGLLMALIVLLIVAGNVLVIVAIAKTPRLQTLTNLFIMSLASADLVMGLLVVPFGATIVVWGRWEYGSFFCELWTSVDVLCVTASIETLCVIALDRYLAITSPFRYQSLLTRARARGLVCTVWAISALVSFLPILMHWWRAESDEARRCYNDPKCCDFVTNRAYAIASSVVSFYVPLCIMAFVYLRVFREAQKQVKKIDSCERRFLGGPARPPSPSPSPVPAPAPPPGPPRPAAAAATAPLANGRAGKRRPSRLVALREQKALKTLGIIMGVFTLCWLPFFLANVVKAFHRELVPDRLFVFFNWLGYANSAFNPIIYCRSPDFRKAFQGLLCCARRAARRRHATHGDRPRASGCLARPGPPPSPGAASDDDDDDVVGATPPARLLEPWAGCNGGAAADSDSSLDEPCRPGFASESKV
Insulin-like growth factor 1 receptor (Homo sapiens), sequence (P08069 31-736 limits assumed): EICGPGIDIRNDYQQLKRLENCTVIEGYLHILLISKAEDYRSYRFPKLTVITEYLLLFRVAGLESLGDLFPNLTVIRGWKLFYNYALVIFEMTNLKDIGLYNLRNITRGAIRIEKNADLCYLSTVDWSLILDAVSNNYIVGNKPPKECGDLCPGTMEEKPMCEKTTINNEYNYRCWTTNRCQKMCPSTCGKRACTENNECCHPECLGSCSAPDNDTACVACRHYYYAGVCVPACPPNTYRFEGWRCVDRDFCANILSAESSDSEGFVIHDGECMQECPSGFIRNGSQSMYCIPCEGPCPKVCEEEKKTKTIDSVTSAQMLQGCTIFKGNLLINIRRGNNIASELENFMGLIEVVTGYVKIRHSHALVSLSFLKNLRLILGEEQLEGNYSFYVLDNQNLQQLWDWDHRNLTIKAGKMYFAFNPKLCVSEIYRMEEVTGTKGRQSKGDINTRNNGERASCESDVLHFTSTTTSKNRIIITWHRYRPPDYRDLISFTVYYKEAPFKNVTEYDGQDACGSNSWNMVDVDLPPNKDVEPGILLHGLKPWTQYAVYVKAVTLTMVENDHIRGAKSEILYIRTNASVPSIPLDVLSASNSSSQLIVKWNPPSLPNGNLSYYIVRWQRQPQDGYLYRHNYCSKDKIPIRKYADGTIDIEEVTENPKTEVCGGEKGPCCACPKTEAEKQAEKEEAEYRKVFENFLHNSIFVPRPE
Insulin-like growth factor 1 receptor (Homo sapiens), sequence (P08069 741-1367 limits assumed): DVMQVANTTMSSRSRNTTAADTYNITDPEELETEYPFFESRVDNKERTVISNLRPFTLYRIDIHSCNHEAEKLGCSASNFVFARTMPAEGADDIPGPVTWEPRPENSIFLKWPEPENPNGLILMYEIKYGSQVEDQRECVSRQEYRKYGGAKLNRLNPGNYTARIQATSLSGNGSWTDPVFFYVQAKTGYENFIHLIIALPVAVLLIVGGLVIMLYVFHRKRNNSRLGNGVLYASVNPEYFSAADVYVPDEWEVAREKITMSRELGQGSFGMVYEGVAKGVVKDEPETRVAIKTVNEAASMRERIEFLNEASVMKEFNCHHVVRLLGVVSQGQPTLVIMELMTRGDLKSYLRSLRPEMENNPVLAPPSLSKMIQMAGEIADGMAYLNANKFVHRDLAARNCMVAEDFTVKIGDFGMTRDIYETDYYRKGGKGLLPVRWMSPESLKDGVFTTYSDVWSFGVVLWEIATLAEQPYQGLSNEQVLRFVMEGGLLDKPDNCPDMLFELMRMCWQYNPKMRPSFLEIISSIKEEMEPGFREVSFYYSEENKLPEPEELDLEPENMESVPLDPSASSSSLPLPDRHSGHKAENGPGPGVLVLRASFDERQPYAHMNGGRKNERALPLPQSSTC
Receptor-interacting serine/threonine-protein kinase 1 (Homo sapiens), sequence (Q13546 whole entry): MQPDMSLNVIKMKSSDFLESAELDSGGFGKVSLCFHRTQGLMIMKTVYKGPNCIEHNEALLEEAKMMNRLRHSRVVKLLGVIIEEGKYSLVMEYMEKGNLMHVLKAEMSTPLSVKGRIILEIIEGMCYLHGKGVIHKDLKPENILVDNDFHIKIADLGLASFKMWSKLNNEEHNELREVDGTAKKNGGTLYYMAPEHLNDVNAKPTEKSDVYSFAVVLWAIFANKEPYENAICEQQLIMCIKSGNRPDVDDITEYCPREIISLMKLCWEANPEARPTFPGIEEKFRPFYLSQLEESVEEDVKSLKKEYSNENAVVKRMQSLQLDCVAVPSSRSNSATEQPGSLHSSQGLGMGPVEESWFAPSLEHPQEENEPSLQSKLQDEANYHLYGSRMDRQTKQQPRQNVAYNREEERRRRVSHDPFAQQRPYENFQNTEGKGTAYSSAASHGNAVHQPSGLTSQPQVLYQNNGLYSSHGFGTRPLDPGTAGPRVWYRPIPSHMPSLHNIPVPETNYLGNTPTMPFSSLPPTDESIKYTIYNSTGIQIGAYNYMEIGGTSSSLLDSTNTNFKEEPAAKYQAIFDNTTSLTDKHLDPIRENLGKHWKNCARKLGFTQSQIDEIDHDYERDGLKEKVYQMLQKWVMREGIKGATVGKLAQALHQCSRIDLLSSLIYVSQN
Dual specificity protein kinase CLK2 (Homo sapiens), sequence (P49760 whole entry, looked up): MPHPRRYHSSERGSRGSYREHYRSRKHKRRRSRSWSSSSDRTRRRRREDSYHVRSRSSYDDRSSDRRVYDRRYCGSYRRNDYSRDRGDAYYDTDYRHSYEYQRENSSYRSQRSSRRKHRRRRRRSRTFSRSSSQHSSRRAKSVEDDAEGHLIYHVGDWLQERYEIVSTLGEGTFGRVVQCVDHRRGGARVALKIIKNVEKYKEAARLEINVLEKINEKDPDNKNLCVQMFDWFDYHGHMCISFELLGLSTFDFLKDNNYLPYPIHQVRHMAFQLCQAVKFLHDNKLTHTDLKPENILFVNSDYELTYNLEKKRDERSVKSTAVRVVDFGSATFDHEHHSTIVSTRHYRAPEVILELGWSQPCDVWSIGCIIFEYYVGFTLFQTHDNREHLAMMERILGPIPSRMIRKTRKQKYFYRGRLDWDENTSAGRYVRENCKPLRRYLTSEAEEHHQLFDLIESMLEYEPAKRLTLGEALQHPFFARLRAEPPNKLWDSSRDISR
Mitogen-activated protein kinase kinase kinase 11 (Homo sapiens), sequence (Q16584 whole entry, looked up): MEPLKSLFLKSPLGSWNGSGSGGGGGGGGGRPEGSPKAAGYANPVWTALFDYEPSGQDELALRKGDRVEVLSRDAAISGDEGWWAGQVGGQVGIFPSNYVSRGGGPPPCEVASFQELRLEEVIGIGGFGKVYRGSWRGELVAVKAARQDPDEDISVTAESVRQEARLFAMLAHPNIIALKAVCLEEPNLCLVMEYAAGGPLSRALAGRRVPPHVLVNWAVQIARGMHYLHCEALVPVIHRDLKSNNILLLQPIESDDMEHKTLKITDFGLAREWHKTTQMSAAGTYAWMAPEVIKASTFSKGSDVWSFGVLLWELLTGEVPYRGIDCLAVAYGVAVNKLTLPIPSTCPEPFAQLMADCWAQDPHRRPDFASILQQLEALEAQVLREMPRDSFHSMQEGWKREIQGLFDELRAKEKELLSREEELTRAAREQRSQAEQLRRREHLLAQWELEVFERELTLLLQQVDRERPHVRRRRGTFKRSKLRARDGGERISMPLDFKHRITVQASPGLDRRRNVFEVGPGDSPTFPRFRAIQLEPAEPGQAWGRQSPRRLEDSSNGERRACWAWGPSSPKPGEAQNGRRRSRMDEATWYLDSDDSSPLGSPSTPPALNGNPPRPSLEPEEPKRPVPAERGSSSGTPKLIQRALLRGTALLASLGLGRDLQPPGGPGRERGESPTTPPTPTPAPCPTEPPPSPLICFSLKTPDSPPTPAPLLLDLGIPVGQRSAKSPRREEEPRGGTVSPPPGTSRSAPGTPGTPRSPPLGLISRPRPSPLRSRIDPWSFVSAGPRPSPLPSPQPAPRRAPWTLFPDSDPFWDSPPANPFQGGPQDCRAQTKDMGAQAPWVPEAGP

CC[C@@H](Nc1c(C#N)c(-c2ccc(-c3cccc(C)c3F)cc2)nc2cnccc12)C(=O)O [BAY-091]
inactive: [1] -5.39% | [2] 2.36% | [3] 1.42% | [4] -2.13% | [5] 4.51% | [6] 1% | [7] 2% | [8] -6.79% | [9] 1.9% | [10] 21% | [11] 21.5% | [12] 10% | [13] 5.17% | [14] -4.91% | [15] 8% | [16] 12% | [17] 36% | [18] 10.9% | [19] 4.71% | [20] 11% | [21] 26.3% | [22] 9.6% | [23] -0.68% | [24] 5.1% | [25] -5.27% | [26] 21.2% | [27] 0.43% | [28] 2.41% | [29] 6.61% | [30] -4.94% | [31] 21.1% | [32] 7.84% | [33] 9.18% | [34] 10.2% | [35] 3.17% | [36] 19% | [37] 11% | [38] 10.3% | [39] 25.4% | [40] -0.55% | [41] 0.07% | [42] 12.3% | [43] 142%
